For this assay, the system named is BDF1 mice, P388 leukemia ip, median survival T/C. Put plainly: NCI In Vivo Anticancer Drug Screen. Data for tumor model P388 Leukemia (intraperitoneal) in B6D2F1 (BDF1) mice. The settings on record: endpoint: median survival time, higher = longer survival. The essentials: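 Reported as T/C, where T is the survival measurement in dosed animals and C the same measurement in vehicle controls.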

The mark [1] stands for this setting: dose: 100.0 mg/kg/injection, schedule: Q01DX009 (ip), vehicle: Klucel (hydroxypropylcellulose) (HPC).
Setting [2] is: dose: 100.0 mg/kg/injection, schedule: Q04DX003 (ip), vehicle: Klucel (hydroxypropylcellulose) (HPC).
Setting [3] is: dose: 200.0 mg/kg/injection, schedule: Q01DX009 (ip), vehicle: Klucel (hydroxypropylcellulose) (HPC).
[4] abbreviates: dose: 200.0 mg/kg/injection, schedule: Q04DX003 (ip), vehicle: Klucel (hydroxypropylcellulose) (HPC).
Setting [5] is: dose: 400.0 mg/kg/injection, schedule: Q04DX003 (ip), vehicle: Klucel (hydroxypropylcellulose) (HPC).
Where [6] appears, read: dose: 100.0 mg/kg/injection, schedule: Q01DX009 (ip), vehicle: saline with Tween-80.
Setting [7] is: dose: 100.0 mg/kg/injection, schedule: Q04DX003 (ip), vehicle: saline with Tween-80.
Setting [8] is: dose: 200.0 mg/kg/injection, schedule: Q01DX009 (ip), vehicle: saline with Tween-80.
Setting [9] is: dose: 200.0 mg/kg/injection, schedule: Q04DX003 (ip), vehicle: saline with Tween-80.
[10] abbreviates: dose: 400.0 mg/kg/injection, schedule: Q04DX003 (ip), vehicle: saline with Tween-80.
Where [11] appears, read: dose: 12.5 mg/kg/injection, schedule: Q01DX009 (ip), vehicle: saline.
Where [12] appears, read: dose: 400.0 mg/kg/injection, schedule: Q01DX009 (ip), vehicle: saline with Tween-80.
[13] abbreviates: dose: 25.0 mg/kg/injection, schedule: Q01DX009 (ip), vehicle: saline with Tween-80.
Setting [14] is: dose: 50.0 mg/kg/injection, schedule: Q01DX009 (ip), vehicle: saline with Tween-80.
Where [15] appears, read: dose: 50.0 mg/kg/injection, schedule: Q01DX009 (ip), vehicle: saline.
Setting [16] is: dose: 100.0 mg/kg/injection, schedule: Q01DX009 (ip), vehicle: saline.
[17] abbreviates: dose: 50.0 mg/kg/injection, schedule: Q01DX009 (ip), vehicle: Klucel (hydroxypropylcellulose) (HPC).
The mark [18] stands for this setting: dose: 12.5 mg/kg/injection, schedule: Q01DX009 (ip), vehicle: saline with Tween-80.

Several values for one entry are separate records, joined by “and”; a condition that tells them apart may be missing. Equal entries are not always repeated. Toxic doses and inconclusive results are not listed.

Experimental findings from PubChem BioAssay AID328 (DTP/NCI, 2004) are described below.

On to `CC(=O)c1ccc(Cc2ccc(C(C)=O)cc2)cc1`, for which the T/C was 104 % of control under setting [1]; 100 % of control under setting [2]; 104 % of control under setting [3]; 109 % of control under setting [4]; 100 % of control (dose: 400.0 mg/kg/injection, schedule: Q01DX009 (ip), vehicle: Klucel (hydroxypropylcellulose) (HPC)); 95 % of control under setting [5].

As for `O=S(=O)(O)CCBr`, the T/C reads like this: (dose: 265.0 mg/kg/injection, schedule: Q01DX001 (ip), vehicle: saline) 90 % of control; (dose: 267.0 mg/kg/injection, schedule: Q01DX001 (ip), vehicle: saline) 100 % of control; (dose: 400.0 mg/kg/injection, schedule: Q01DX001 (ip), vehicle: saline) 86 % of control and 90 % of control.

As for `c1ccc2c(c1)ccc1cc3c(ccc4ccccc43)cc12`, the T/C is 120 % of control under setting [6]; 118 % of control under setting [7]; 112 % of control under setting [8]; 109 % of control under setting [9]; 109 % of control under setting [10].

On to `CCCCCCCCCCCCCCCCP(=O)(OCCOCCCCCC)OCCOCCCCCC`, for which the T/C is, setting by setting: (dose: 12.5 mg/kg/injection, schedule: Q01DX009 (ip), vehicle: alcohol) 105 % of control; under setting [11], 87 % of control; (dose: 25.0 mg/kg/injection, schedule: Q01DX009 (ip), vehicle: alcohol) 105 % of control; (dose: 82.5 mg/kg/injection, schedule: Q01DX001 (ip), vehicle: saline) 100 % of control; (dose: 165.0 mg/kg/injection, schedule: Q01DX001 (ip), vehicle: saline) 100 % of control.

Consider `OC1(C2(O)CCCC2)CCCC1`, for which the T/C is, setting by setting: under setting [6], 109 % of control; under setting [8], 95 % of control; under setting [12], 100 % of control.

As to `CCCCCCCCCCCCN1C(=O)[N+](C)(C)N=C1[O-]`, the T/C by setting is: under setting [13], 90 % of control; under setting [14], 90 % of control; under setting [6], 92 % of control.

Take `CS/C(N)=N/N`: the T/C is 95 % of control (dose: 6.25 mg/kg/injection, schedule: Q04DX003 (ip), vehicle: saline) and 108 % of control (dose: 12.5 mg/kg/injection, schedule: Q04DX003 (ip), vehicle: saline).

In the case of `NC(N)=N/N=C/C(Cl)Cl`, the T/C is 95 % of control and 100 % of control (dose: 25.0 mg/kg/injection, schedule: Q01DX009 (ip), vehicle: saline); 104 % of control under setting [15]; 100 % of control and 109 % of control under setting [16].

With `CCCCOC(=O)c1[nH]cnc1/N=N\N(C)C`, the T/C was 104 % of control (dose: 12.5 mg/kg/injection, schedule: Q01DX009 (ip), vehicle: Klucel (hydroxypropylcellulose) (HPC)); 109 % of control (dose: 25.0 mg/kg/injection, schedule: Q01DX009 (ip), vehicle: Klucel (hydroxypropylcellulose) (HPC)); 104 % of control under setting [17]; 100 % of control under setting [1]; 100 % of control and 113 % of control (dose: 132.0 mg/kg/injection, schedule: Q04DX003 (ip), vehicle: Klucel (hydroxypropylcellulose) (HPC)); 95 % of control and 113 % of control under setting [4]. Further, where the note is “dose: 300.0 mg/kg/injection, schedule: Q04DX003 (ip), vehicle: Klucel (hydroxypropylcellulose) (HPC)”, the T/C was 109 % of control and 118 % of control.

For `COC1CC(N=[N+]=[N-])C(OC(=O)c2ccccc2)C(C)O1` (stereo not given), the T/C by setting is: under setting [6], 94 % of control; under setting [7], 101 % of control; under setting [9], 106 % of control; under setting [10], 106 % of control.

For the molecule `COc1ccc(C(=O)C(C)Br)c(OCc2ccccc2)c1OC` (stereo not given), the T/C under setting [18] is 100 % of control; the T/C under setting [13] is 95 % of control; the T/C under setting [14] is 100 % of control; the T/C under setting [6] was 90 % of control; the T/C under setting [7] is 95 % of control; the T/C under setting [8] is 95 % of control. For the same molecule, the T/C under setting [9] was 114 % of control and the T/C under setting [10] is 104 % of control.

`COc1cc(/C=N/Nc2ccc([N+](=O)[O-])cc2)cc(OC)c1OC`: the T/C by setting is: (dose: 50.0 mg/kg/injection, schedule: Q04DX003 (ip), vehicle: saline with Tween-80) 100 % of control; under setting [6], 95 % of control; under setting [7], 95 % of control; under setting [8], 95 % of control; under setting [9], 105 % of control; under setting [12], 100 % of control.

As for `O=C(Cc1ccc([N+](=O)[O-])cc1)c1ccc(O)cc1O`, the T/C was 86 % of control (dose: 50.0 mg/kg/injection, schedule: Q04DX003 (ip), vehicle: Klucel (hydroxypropylcellulose) (HPC)); 95 % of control under setting [2]; 90 % of control under setting [4].

For `CCOC(=O)C1OC12CCCCC2` (stereo not given), the T/C is, setting by setting: (dose: 100.0 mg/kg/injection, schedule: Q01DX001 (ip), vehicle: Klucel (hydroxypropylcellulose) (HPC)) 109 % of control; (dose: 200.0 mg/kg/injection, schedule: Q01DX001 (ip), vehicle: Klucel (hydroxypropylcellulose) (HPC)) 100 % of control; under setting [4], 100 % of control; (dose: 400.0 mg/kg/injection, schedule: Q01DX001 (ip), vehicle: Klucel (hydroxypropylcellulose) (HPC)) 113 % of control; under setting [5], 116 % of control.

Regarding `OCC1OC(n2cc(Cl)c3cncnc32)C(O)C1O` (stereo not given), the T/C (dose: 50.0 mg/kg/injection, schedule: Q04DX003 (ip), vehicle: saline) was 100 % of control and the T/C (dose: 100.0 mg/kg/injection, schedule: Q04DX003 (ip), vehicle: saline) was 90 % of control.

Turning to `O=C1c2ccccc2-c2ncccc21`, the T/C by setting is: under setting [2], 100 % of control; under setting [4], 95 % of control.

On to `O=S1(=O)CC(Cl)C(Cl)C1` (stereo not given), for which the T/C is, setting by setting: (dose: 3.12 mg/kg/injection, schedule: Q01DX009 (ip), vehicle: saline) 90 % of control and 95 % of control; (dose: 4.5 mg/kg/injection, schedule: Q04DX003 (ip), vehicle: saline) 118 % of control; (dose: 6.25 mg/kg/injection, schedule: Q01DX009 (ip), vehicle: saline) 90 % of control; (dose: 9.0 mg/kg/injection, schedule: Q04DX003 (ip), vehicle: saline) 104 % of control; under setting [11], 95 % of control; (dose: 18.0 mg/kg/injection, schedule: Q04DX003 (ip), vehicle: saline) 113 % of control. Also, the T/C (dose: 26.0 mg/kg/injection, schedule: Q04DX003 (ip), vehicle: saline) is 91 % of control.

Take `C=Cc1c(C)c(O)cc2c1-c1ccc(O)c(C)c1CC2`: the T/C is 104 % of control (dose: 6.25 mg/kg/injection, schedule: Q01DX009 (ip), vehicle: saline with Tween-80); 104 % of control under setting [18]; 104 % of control under setting [13]; 100 % of control under setting [14].

Take `CC[N+]1(CC)CC[N+]2(CC1)CC[N+]1(CC[N+](CC)(CC)CC1)CC2`: the T/C runs as follows: under setting [15], 101 % of control; under setting [16], 101 % of control; (dose: 200.0 mg/kg/injection, schedule: Q01DX009 (ip), vehicle: saline) 106 % of control.

For the molecule `C(=N/NC1=NCCN1)/c1c2ccccc2c(/C=N\NC2=NCCN2)c2ccccc12`, the T/C by setting is: (dose: 1.56 mg/kg/injection, schedule: Q04DX002 (ip), vehicle: saline) 209 % of control; (dose: 3.12 mg/kg/injection, schedule: Q04DX002 (ip), vehicle: saline) 229 % of control; (dose: 6.25 mg/kg/injection, schedule: Q04DX002 (ip), vehicle: saline) 239 % of control; (dose: 12.5 mg/kg/injection, schedule: Q04DX002 (ip), vehicle: saline) 209 % of control; (dose: 25.0 mg/kg/injection, schedule: Q04DX002 (ip), vehicle: saline) 229 % of control; (dose: 50.0 mg/kg/injection, schedule: Q04DX002 (ip), vehicle: saline) 280 % of control.

`Cc1ccc(NC(=O)CO)cc1`: the T/C under setting [17] is 102 % of control, the T/C under setting [1] is 97 % of control and the T/C under setting [3] is 104 % of control.
